Data as given in ChEMBL document CHEMBL1142750, “Gastric cytoprotective activity of ilicic aldehyde: structure-activity relationships” (2005).

Tests used:
Type in all cases: functional
Rattus norvegicus [1] = assay: Percent inhibition ethanol induced necrotic damage of gastric mucosa in male wistar rat after dosage; Dose range 25-100 mg/kg
Rattus norvegicus [2] = assay: Gastric cytoprotective effect as ulcerative index was calculated in male wistar rat after 100 mg/kg dosage
Rattus norvegicus [3] = assay: Gastric cytoprotective effect as ulcerative index was calculated in male wistar rat after 20 mg/kg dosage
Rattus norvegicus [4] = assay: Percent inhibition ethanol induced necrotic damage of gastric mucosa in male wistar rat after 1 hr of contact with synthetic gastric juice; Dose range 25?100 mg/kg
Rattus norvegicus [5] = assay: Percent inhibition ethanol induced necrotic damage of gastric mucosa in male wistar rat after 2 hr of contact with synthetic gastric juice; Dose range 25?100 mg/kg
Rattus norvegicus [6] = assay: Gastric cytoprotective effect as ulcerative index was calculated in male wistar rat at 100 mg/kg dose after 1 hr of contact with synthetic gastric juice
Rattus norvegicus [7] = assay: Gastric cytoprotective effect as ulcerative index was calculated in male wistar rat at 100 mg/kg dose after 2 hr of contact with synthetic gastric juice

Row | Compound | Inhibition of damage (Rattus norvegicus [1]) | Ulcerative index (Rattus norvegicus [2]) | also measured
1 | C=C(C=O)[C@@H]1CC[C@@]2(C)CCCC(C)=C2C1 | 5% | 4.62 | –
2 | C=C(C=O)[C@@H]1CC[C@@]2(C)CCC[C@@](C)(O)C2C1 (some centres not stated) | 96% | 0.2 | –
3 | C=C(CO)[C@@H]1CC[C@@]2(C)CCC[C@@](C)(O)C2C1 (some centres not stated) | 1% | 4.8 | –
4 | C=C(C(=O)O)[C@@H]1CCC2=CC=C[C@H](C)[C@@]2(C)C1 | 23% | – | Ulcerative index (Rattus norvegicus [3]): 3.7
5 | C=C1C(=O)O[C@H]2C1CCC(C)=C1C(=O)C=C(C)[C@@H]12 (some centres not stated) | 97% | 0.16 | –
6 | C=C(C=O)[C@@H]1CC[C@@]2(C)CCC[C@@](C)(OC(=O)C(F)(F)F)C2C1 (some centres not stated) | – | – | Inhibition of damage (Rattus norvegicus [4]): 86%; Inhibition of damage (Rattus norvegicus [5]): 96%; Ulcerative index (Rattus norvegicus [6]): 0.66; Ulcerative index (Rattus norvegicus [7]): 0.16
7 | C=C(C=O)[C@@H]1CC[C@@]2(C)CCC[C@@](C)(O[Si](C)(C)C)C2C1 (some centres not stated) | 48% | 2.5 | –
8 | C=C1C(=O)O[C@]23C[C@H]1CC[C@@]2(C)CCC[C@H]3C | 48% | 2.5 | –
9 | C=C1C(=O)O[C@]23C[C@H]1CC[C@@]2(C)CCCC3=C | 30% | 3.37 | –
10 | C=C1CCC[C@]2(C)CC[C@@H](C(=C)C=O)CC12 (some centres not stated) | 23% | 3.75 | –
11 | C=C(C(=O)O)[C@@H]1CC[C@@]2(C)CCC[C@@](C)(O)C2C1 (some centres not stated) | 5% | 4.62 | –
12 | C=C(C(=O)O)[C@@H]1CC[C@@]2(C)CCCC(C)=C2C1 | 17% | 4 | –
13 | COc1ccc2[nH]c([S+]([O-])Cc3ncc(C)c(OC)c3C)nc2c1 (configuration not stated) [OMEPRAZOLE] | 38% | – | Ulcerative index (Rattus norvegicus [3]): 3
14 | C=C(C(=O)OC)[C@@H]1CCC2=CC(=O)C[C@H](C)[C@@]2(C)C1 [TESSARIC ACID METHYL ESTER] | 5% | 4.62 | –
15 | C=C(C(=O)O)[C@@H]1CCC2=CC(=O)C[C@H](C)[C@@]2(C)C1 [TESSARIC ACID] | 5% | 4.62 | –
